The values that follow come from patent publication EP1363899B1, “QUINAZOLONE DERIVATIVES AS ALPHA 1A/B ADRENERGIC RECEPTOR ANTAGONISTS” (F.HOFFMANN-LA ROCHE AG, priority 2001, dated 2002).

One assay addresses T1, alpha-1B adrenoceptor (Homo sapiens, UniProt P35368).
T1 construct: expressed in transfected cells; host or cells: CHO-K1
T1 sequence (P35368 1-520): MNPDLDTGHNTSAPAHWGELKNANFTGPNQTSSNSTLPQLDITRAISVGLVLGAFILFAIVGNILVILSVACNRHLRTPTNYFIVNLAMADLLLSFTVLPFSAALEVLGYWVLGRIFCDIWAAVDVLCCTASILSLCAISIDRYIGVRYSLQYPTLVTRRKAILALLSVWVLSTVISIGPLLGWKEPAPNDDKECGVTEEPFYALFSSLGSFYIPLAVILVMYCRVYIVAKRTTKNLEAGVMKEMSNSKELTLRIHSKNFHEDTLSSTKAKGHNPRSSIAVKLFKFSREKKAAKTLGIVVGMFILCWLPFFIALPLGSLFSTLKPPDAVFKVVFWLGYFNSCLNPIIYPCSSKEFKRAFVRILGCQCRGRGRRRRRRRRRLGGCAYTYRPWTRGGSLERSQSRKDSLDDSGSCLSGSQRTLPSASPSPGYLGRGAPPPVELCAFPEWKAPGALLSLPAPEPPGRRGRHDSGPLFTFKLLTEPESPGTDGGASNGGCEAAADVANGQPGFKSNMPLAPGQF
The experiment in a line: [3H]prazosin binding (alpha1-adrenoceptor) assay, alpha-1B. The following applies: membranes of transfected CHO-KI cells, read-out: affinity towards the alpha-1B adrenoceptor (pKi) (converted). On the procedure:
(§1) Alpha1A, alpha1B, and alpha1D adrenoceptor transfected CHO-KI cells, prepared using the methods described by Chang et al., FEBS Lett. 1998, 422:279-283, were grown to confluence in T-162 tissue culture flasks in Ham's F-12 culture medium supplemented with 10% fetal bovine serum, geneticin (150 µg/mL) and streptomycin/penicillin (30 µg/mL/30 µg/mL) at 37 °C in 7% CO2. Cells were harvested by incubating with phosphate-buffered saline (PBS) containing 30 µM EDTA for 5-10 min at 37 °C. Cells were pelleted by centrifuging at 500 x g for 5 min, and the pelleted cells were homogenized (Polytron homogenizer) in 10 vols (w/v) of 50 mM Tris, 1 mM EDTA, (homogenisation buffer, pH 7.4 at 4 °C). The homogenate was centrifuged at 45,000 x g for 20 min. The pellet was resuspended in the homogenizing buffer and rehomogenized. The resulting homogenate was centrifuged at 45,000 x g for 20 min. The pellet was resuspended in 50 mM Tris buffer (pH 7.4 at 4 °C), aliquoted, frozen, and stored at -80 °C for further use.
(§2) The membranes were thawed at room temperature and diluted in assay buffer (50 mM Tris buffer at […]) at 37 °C and homogenized using the Polytron tissue disrupter. The membranes were incubated with the radioligand ([^3H]prazosin, NEN, 0.1 - 0.5 nM) and test compound at 37 °C for 30 min. The membranes were then filtered over polyethyleneimine-treated GF/B unifilter plates using a Packard Filtermate Harvester and washed with ice-cold 50 mM Tris-HCl, 1 mM EDTA buffer (3 x 3 sec. washes). Scintillation cocktail was added to the filter plates and bound radioligand determined by liquid scintillation spectrophotometry.
(§3) For each experiment, total binding (in the absence of any test or reference compounds) and non-specific binding (10 µM phentolamine) were determined. For each sample tested, the concentration producing 50% inhibition of binding (IC50) and Hill Slope (nH) was determined using iterative non-linear curve fitting techniques with Kaleidagraph (Synergy Software) or other appropriate software. If the radioligand KD was known, the inhibition dissociation constant (K1) of each ligand was determined according to the method of Cheng and Prusoff (Cheng, Y-C. and Prusoff, W.H., Biochem. Pharmacol., 1973, 22, 3099-3108).

The next assay concerns the target T2, alpha-1A adrenoceptor (Homo sapiens, UniProt P35348).
T2 construct: expressed in transfected cells; host or cells: CHO-K1
T2 sequence (P35348 1-466): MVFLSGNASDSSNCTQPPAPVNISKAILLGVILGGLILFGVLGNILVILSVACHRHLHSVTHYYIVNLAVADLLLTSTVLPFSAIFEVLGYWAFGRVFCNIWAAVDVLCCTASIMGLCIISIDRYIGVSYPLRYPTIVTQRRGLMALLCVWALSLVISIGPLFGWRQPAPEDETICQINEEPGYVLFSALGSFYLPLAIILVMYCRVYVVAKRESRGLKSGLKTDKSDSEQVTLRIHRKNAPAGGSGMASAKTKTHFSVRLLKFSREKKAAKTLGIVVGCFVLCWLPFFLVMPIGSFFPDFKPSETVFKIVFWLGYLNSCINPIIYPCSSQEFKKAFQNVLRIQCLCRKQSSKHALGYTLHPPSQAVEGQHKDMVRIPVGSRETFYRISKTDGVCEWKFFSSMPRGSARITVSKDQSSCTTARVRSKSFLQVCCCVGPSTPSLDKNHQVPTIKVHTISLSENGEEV
The experiment in a line: [3H]prazosin binding (alpha1-adrenoceptor) assay, alpha-1A. The following applies: membranes of transfected CHO-KI cells, read-out: affinity towards the alpha-1A adrenoceptor (pKi) (converted). How it is done:
as §1, §2, §3

The next assay addresses T3, alpha-1D adrenoceptor (Homo sapiens, UniProt P25100).
T3 construct: expressed in transfected cells; host or cells: CHO-K1
T3 sequence (P25100 1-572): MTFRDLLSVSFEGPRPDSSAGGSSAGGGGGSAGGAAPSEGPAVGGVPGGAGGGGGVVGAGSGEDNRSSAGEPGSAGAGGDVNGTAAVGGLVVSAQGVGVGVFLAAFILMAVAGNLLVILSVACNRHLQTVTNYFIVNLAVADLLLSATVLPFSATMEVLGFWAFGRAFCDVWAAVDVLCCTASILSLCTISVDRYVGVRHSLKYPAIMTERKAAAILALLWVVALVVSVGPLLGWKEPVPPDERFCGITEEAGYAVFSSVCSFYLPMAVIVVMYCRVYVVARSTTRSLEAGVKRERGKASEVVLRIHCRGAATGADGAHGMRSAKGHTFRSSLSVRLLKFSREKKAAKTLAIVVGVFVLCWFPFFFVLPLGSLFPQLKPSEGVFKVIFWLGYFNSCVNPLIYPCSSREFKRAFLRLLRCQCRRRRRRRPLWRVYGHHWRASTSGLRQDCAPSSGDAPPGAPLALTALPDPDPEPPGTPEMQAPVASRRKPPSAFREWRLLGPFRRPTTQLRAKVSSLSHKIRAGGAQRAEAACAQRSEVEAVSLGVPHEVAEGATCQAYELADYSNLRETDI
In words: [3H]prazosin binding (alpha1-adrenoceptor) assay, alpha-1D. As to conditions: membranes of transfected CHO-KI cells, read-out: affinity towards the alpha-1D adrenoceptor (pKi) (converted). On the procedure:
as §1, §2, §3

Regarding `COc1cc2c(cc1OC)CN(C1=Nc3cc(OC)c(OC)cc3S(=O)(=O)N1)CC2` [Compound 101, 3-(6,7-dimethoxy-3,4-dihydro-1H-isoquinolin-2-yl)-6,7-dimethoxy-2H-benzo[1,2,4]thiadiazine-1,1-dioxide], the results for the Ki at alpha-1B adrenoceptor, at alpha-1A adrenoceptor and at alpha-1D adrenoceptor were 7.08 nM, 1.62 nM and 66.1 nM, respectively.
With `COc1cc2c(cc1OC)S(=O)(=O)NC(N1CCc3c(ncnc3N3CCOCC3)C1)=N2` [Compound 102, 6,7-dimethoxy-3-(4-morpholin-4-yl-5,8-dihydro-6H-pyrido[3,4d]pyrimidin-7-yl)-2H-benzo[1,2,4]thiadiazine-1,1-dioxide], the values for the Ki on alpha-1B adrenoceptor, at alpha-1A adrenoceptor and at alpha-1D adrenoceptor were 31.6 nM, 15.8 nM and 339 nM, respectively.
Take `COc1cc2c(cc1OC)CN(c1nc(=O)c3cc(OC)c(OC)cc3[nH]1)CC2` [Compound 105, 2-(6,7-dimethoxy-3,4-dihydro-1H-isoquinolin-2-yl)-6,7-dimethoxy-1H-quinazolin-4-one]: the figures for the Ki on alpha-1B adrenoceptor, on alpha-1A adrenoceptor and at alpha-1D adrenoceptor were 0.759 nM, 0.955 nM and 47.9 nM, respectively.
Take `COc1ccc(-c2cccc3c2CCN(c2nc4cc(OC)c(OC)cc4c(=O)[nH]2)C3)cc1` [Compound 106, 6,7-dimethoxy-2-[5-(4-methoxy-phenyl)-3,4-dihydro-1H-isoquinolin-2-yl]-3H-quinazolin-4-one]: the Ki on alpha-1B adrenoceptor was 0.741 nM; at alpha-1A adrenoceptor it was 3.8 nM; on alpha-1D adrenoceptor, 10000 nM.
Consider `COc1cc2nc(N3CCc4c(cccc4-c4cccnc4)C3)[nH]c(=O)c2cc1OC` [Compound 112, 6,7-dimethoxy-2-(5-pyridin-3-yl-3,4-dihydro-1H-isoquinolin-2-yl)-3H-quinazolin-4-one], for which the Ki is 2.04 nM on alpha-1B adrenoceptor, 1.17 nM on alpha-1A adrenoceptor and 132 nM on alpha-1D adrenoceptor.
For the compound `COc1cc2nc(N3CCc4ccc(N5CCCC5)cc4C3)[nH]c(=O)c2cc1OC` [Compound 113, 6,7-dimethoxy-2-(7-pyrrolidin-1-yl-3,4-dihydro-1H-isoquinolin-2-yl)-3H-quinazolin-4-one], the Ki at alpha-1B adrenoceptor was 0.912 nM; at alpha-1A adrenoceptor, 2.04 nM; at alpha-1D adrenoceptor, 33.9 nM.
Turning to `COc1cc2nc(N3CCc4c(cc(OC)c(OC)c4C#N)C3)[nH]c(=O)c2cc1OC` [Compound 118, 2-(6,7-dimethoxy-4-oxo-3,4-dihydro-quinazolin-2-yl)-6,7-dimethoxy-1,2,3,4-tetrahydro-isoquinoline-5-carbonitrile], the Ki on alpha-1B adrenoceptor is 1.51 nM; at alpha-1A adrenoceptor, 0.759 nM; at alpha-1D adrenoceptor, 17 nM.
With `COc1cc2[nH]c(N3CCc4c(cccc4N4CCOCC4)C3)nc(=O)c2cc1OC` [Compound 131, 6,7-dimethoxy-2-(5-morpholin-4-yl-3,4-dihydro-1H-isoquinolin-2-yl)-1H-quinazolin-4-one], the values for the Ki at alpha-1B adrenoceptor, at alpha-1A adrenoceptor and on alpha-1D adrenoceptor were 39.8 nM, 89.1 nM and 955 nM, respectively.
Turning to `COc1cc2[nH]c(N3CCc4cc(O)c(O)cc4C3C)nc(=O)c2cc1OC` (stereo not drawn) [Compound 142, 2-(6,7-dihydroxy-1-methyl-3,4-dihydro-1H-isoquinolin-2-yl)-6,7-dimethoxy-1H-quinazolin-4-one], the results for the Ki at alpha-1B adrenoceptor, on alpha-1A adrenoceptor and at alpha-1D adrenoceptor were 955 nM, 219 nM and 38900 nM, respectively.
The corresponding values for `COc1cc2nc(N3CCc4c([nH]c5ccccc45)C3)[nH]c(=O)c2cc1OC` [Compound 143, 6,7-dimethoxy-2-(1,3,4,9-tetrahydro-β-carbolin-2-yl)-3H-quinazolin-4-one] are 1.1 nM, 0.479 nM and 20.9 nM.
On the same counts, the results for `COc1cc2nc(N3CCc4nc5ccncc5cc4C3)[nH]c(=O)c2cc1OC` [Compound 146, 2-(3,4-dihydro-1H-2,7,10-triaza-anthracen-2-yl)-6,7-dimethoxy-3H-quinazolin-4-one] are 5.25 nM, 3.47 nM and 91.2 nM.
Take `COc1cc2[nH]c(N3CCc4ccncc4C3)nc(=O)c2cc1OC` [Compound 147, 2-(3,4-dihydro-1H-[2,7]naphthyridin-2-yl)-6,7-dimethoxy-1H-quinazolin-4-one]: the Ki is 41.7 nM at alpha-1B adrenoceptor, 5.5 nM on alpha-1A adrenoceptor and 468 nM on alpha-1D adrenoceptor.
On the same counts, the results for `COc1cc2nc(N3CCc4c(ncnc4N4CCN(C)CC4)C3)[nH]c(=O)c2cc1OC` [Compound 203, 6,7-dimethoxy-2-[4-(4-methyl-piperazin-1-yl)-5,8-dihydro-6H-pyrido[3,4-d]pyrimidin-7-yl]-3H-quinazolin-4-one] are 8.71 nM, 4.47 nM and 575 nM.
On the same counts, the results for `COCCN(C)c1ncnc2c1CCN(c1nc3cc(OC)c(OC)cc3c(=O)[nH]1)C2` [Compound 205] are 5.01 nM, 6.17 nM and 407 nM.
The corresponding values for `COc1cc2nc(N3CCc4c(ncnc4Nc4cccc(C)n4)C3)[nH]c(=O)c2cc1OC` [Compound 208, 6,7-dimethoxy-2-[4-(6-methyl-pyridin-2-ylamino)-5,8-dihydro-6H-pyrido[3,4-d]pyrimidin-7-yl]-3H-quinazolin-4-one] are 13.2 nM, 3.8 nM and 182 nM.
On to `COc1cc2[nH]c(N3CCn4c(cnc4-c4ccccc4)C3)nc(=O)c2cc1OC` [Compound 302, 6,7-dimethoxy-2-(3-phenyl-5,6-dihydro-8H-imidazo[1,5-a]pyrazin-7-yl)-1H-quinazolin-4-one], for which the values for the Ki on alpha-1B adrenoceptor, on alpha-1A adrenoceptor and on alpha-1D adrenoceptor were 0.832 nM, 0.912 nM and 6.17 nM, respectively.
As for `CCCCc1ncc2n1CCN(c1nc(=O)c3cc(OC)c(OC)cc3[nH]1)C2` [Compound 306, 2-(3-butyl-5,6-dihydro-8H-imidazo[1,5-α]pyrazin-7-yl)-6,7-dimethoxy-1H-quinazolin-4-one], the Ki was 3.09 nM on alpha-1B adrenoceptor, 1.12 nM on alpha-1A adrenoceptor and 19.5 nM at alpha-1D adrenoceptor.
